# Source: patent publication US7960436B2, “Substituted arylamino-1,2,3,4-tetrahydro naphthalenes and-2,3-dihydro-1H-indenes as potassium channel modulators” (Valeant Pharmaceuticals International, priority 2006, dated 2011)
# System: potassium ion channels
# Experiment: Rubidium (Rb+) efflux assay in NGF-differentiated PC-12 cells
# Format: cell-based
# Conditions: depolarization buffer with 15 mM KCl, 10 min at room temperature, read-out: EC50 (compound's concentration for 50% of maximal Rb+ efflux)
# Protocol: Several typical compounds of this invention were assayed as potassium channel modulators by measuring rhubidium release.
# Methods: PC-12 cells were grown at 37° C. and 5% CO2 in DMEM/F12 Medium supplemented with 10% horse serum, 5% fetal bovine serum, 2 mM glutamine, 100 U/ml penicillin, 100 U/ml streptomycin. They were plated in poly-D-lysine-coated 96-well cell culture microplates at a density of 40,000 cells/well and differentiated with 100 ng/ml NGF-7s for 2-5 days. For the assay, the medium was aspirated and the cells were washed once with 0.2 ml in wash buffer (25 mM HEPES, pH 7.4, 150 mM NaCl, 1 mM MgCl2, 0.8 mM NaH2PO4, 2 mM CaCl2). The cells were then loaded with 0.2 ml Rb^+ loading buffer (wash buffer plus 5.4 mM […], 5 mM glucose) and incubated at 37° C. for 2 h. Attached cells were quickly washed three times with buffer (same as Rb^+ loading buffer, but containing 5.4 mM KCl instead of RbCl) to remove extracellular Rb^+. Immediately following the wash, 0.2 ml of depolarization buffer (wash buffer plus 15 mM KCl) with or without compounds was added to the cells to activate efflux of potassium ion channels. After incubation for 10 min at room temperature, the supernatant was carefully removed and collected. Cells were lysed by the addition of 0.2 ml of lysis buffer (depolarization buffer plus 0.1% Triton X-100) and the cell lysates were also collected. If collected samples were not immediately analyzed for Rb^+ contents by atomic absorption spectroscopy (see below), they were stored at 4° C. without any negative effects on subsequent Rb^+ analysis.
# The concentration of Rb^+ in the supernatants (Rb^+Sup) and cell lysates (Rb^+Lys) was quantified using an ICR8000 flame atomic absorption spectrometer (Aurora Biomed Inc., Vancouver, B.C.) under conditions defined by the manufacturer. One 0.05 ml samples were processed automatically from microtiter plates by dilution with an equal volume of Rb^+ sample analysis buffer and injection into an air-acetylene flame. The amount of Rb^+ in the sample was measured by absorption at 780 nm using a hollow cathode lamp as light source and a PMT detector. A calibration curve covering the range 0-5 mg/L Rb^+ in sample analysis buffer was generated with each set of plates. The percent Rb^+ efflux (F) was defined by F=[Rb^+Sup/(Rb^+Sup+Rb^+Lys)]×100% The effect (E) of a compound was defined by: E=[(Fc−Fb)/(Fs−Fb)]×100% where the Fc is the efflux in the presence of compound in depolarization buffer, Fb is the efflux in basal buffer, and Fs is the efflux in depolarization buffer, and. The effect (E) and compound concentration relationship was plotted to calculate an EC50 value, a compound's concentration for 50% of maximal Rb^+ efflux.
row,EC50,Compound
1,> 5000 nM,CCOC(=O)Nc1ccc2c(c1N)CCCC2Nc1ccc(C(F)(F)F)cc1 (stereo not shown)
2,> 5000 nM,CCOC(=O)Nc1cc2c(cc1N)C(Nc1ccc(C(F)(F)F)cc1)CCC2 (stereo not shown)
3,< 500 nM,CC(C)(C)CC(=O)Nc1cc2c(cc1N)C(Nc1ccc(C(F)(F)F)cc1)CC2 (stereo not shown)
4,500 to 5000 nM,CC(C)(C)CC(=O)Nc1cc2c(cc1N)C(Nc1ccc(F)cc1)CC2 (stereo not shown)
5,500 to 5000 nM,CCOC(=O)Nc1ccc2c(c1N)CCC2Nc1ccc(F)cc1 (stereo not shown)
6,< 500 nM,Nc1cc2c(cc1NC(=O)CCC1CCCC1)CCC2Nc1ccc(C(F)(F)F)cc1 (stereo not shown)
7,< 500 nM,Nc1cc2c(cc1NC(=O)CCC1CCCC1)CCC2Nc1ccc(F)cc1 (stereo not shown)
